Measured values reported in patent US8178579B2, “Dioxanes and uses thereof” (President and Fellows of Harvard College, priority 2001, dated 2012).

What was measured:
HeLa cells = assay: high throughput microscopy of HeLa cells; type: cell-based; details: single-compound assays
Excerpt: The cellular basis of these phenotypes has not been investigated. No phenotypes consistent with mitotic arrest were observed.

Ure2p [1] = biological target: T1, Ure2p (Saccharomyces cerevisiae, UniProt P23202); assay: PUT1-lacZ reporter β-galactosidase assay; type: cell-based; details: yeast in YPD, 30 °C, 60-90 min; rapamycin 50 nM
T1 construct: endogenous in cells; host or cells: yeast strain DB26-3A (MAT-a ura3-52 ade2 PUT1-lacZ)
T1 sequence (P23202 1-354): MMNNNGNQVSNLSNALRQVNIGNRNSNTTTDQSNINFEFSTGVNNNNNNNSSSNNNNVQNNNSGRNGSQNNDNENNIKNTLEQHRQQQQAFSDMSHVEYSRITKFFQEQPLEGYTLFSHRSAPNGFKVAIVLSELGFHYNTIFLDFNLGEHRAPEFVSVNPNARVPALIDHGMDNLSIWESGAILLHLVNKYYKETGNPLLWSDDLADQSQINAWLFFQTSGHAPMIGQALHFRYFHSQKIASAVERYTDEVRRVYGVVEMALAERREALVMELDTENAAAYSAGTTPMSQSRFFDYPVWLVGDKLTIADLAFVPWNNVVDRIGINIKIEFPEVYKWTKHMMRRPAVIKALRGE
Description: (§1) FIG. 24 depicts studies in vivo, dose response and structure-activity relationships of uretupamine. (A) A yeast strain (DB26-3A) growing in YPD medium expressing a PUT1-lacZ reporter was treated with 50 nM rapamycin or with a compound that had been detected to bind to labelled Ure2p on a small-molecule microarray. After 90 min of treatment at 30° C., a standard liquid b-galactosidase assay was performed. Data are expressed in fold Miller units compared with treatment with 50 nM rapamycin for 90 minutes. DB26-3A (MAT-a ura3-52 ade2 PUT1-lacZ) was a gift from M. Brandriss. Vehicle: samples treated with N,N-dimethylformamide (DMF), the vehicle into which library compounds were dissolved (B): Uretupamine A was resynthesized and tested in the b-galactosidase assay by using the PUT1-lacZ reporter at the concentrations indicated for 60 min at 30 C in YPD medium. (C) Compounds derived from the uretupamine A structure were synthesized to explore structure-activity relationships. Listed are b-galactosidase assay results of treatment with each compound at 100 μM (asterisk designates 50 μM) for 60 min at 30 C in YPD medium. Data are in percentage Miller units compared with treating with 50 nM rapamycin for 60 min. […] (D) Binding of uretupamine B to Ure2p was determined by using surface plasmon resonance (BIAcore 3000) to have a dissociation constant of 7.5 μM. […]

[2] = solubility in yeast medium; type: physicochemical; details: higher concentrations
Ure2p-controlled genes = assay: whole-genome transcription profiling of yeast strains; type: cell-based; details: 100 μM, 30 min
Description: FIG. 25 depicts transcription profiling of treatment with uretupamine. (A) The left microarray corresponds to wild-type cells (PM38) treated with vehicle (DMF) versus wild type (w.t.) cells treated for 30 min with uretupamine A at 100 μM. The right microarray corresponds to ure2Δ cells (PH2) treated with vehicle versus ure2Δ cells treated for 30 min with uretupamine A at 100 μM. Profiles were obtained as described (Hardwick et al. Proc. Natl. Acad. Sci. USA 1999, 96, 14866-14870). At the right are shown specific gene inductions of some URE2-dependent genes from the microarrays. PM38 (MATaleu2-3,112 ura3-52), PM71 (MA4Taleu2-3, 112 ura3-52 gln3Δ5::LEU2), MS221 (MATaura3-52 nil1::hisG), PH2 (MATaleu2-3, 112 ura3-52 ure2Δ12::URA3) were gifts from B. Magasanik and M. Brandriss. (B) The transcription profiles of wild-type cells (PM38), ure2Δ cells (PH2), gln3Δ cells (PM71) and nil1Δ cells (MS221) grown in YPD medium treated for 30 min with 100 μM uretupamine B were obtained. The geometric means of gene inductions of the sets listed are shown. (C) An analysis was performed based on treating individual profiles as high-dimensional vectors and then examining the ratios of their magnitudes as a measure of relative activity (Shamji et al. Curr. Biol. 2000, 10, 1574-1581; Kuruvilla et al. Genome Biol. 2002, 3(3), 0011.1-0011.11).
To determine the precise effects and specificity of uretupamine, whole-genome transcription profiling was used in wild-type cells as well as an otherwise isogenic ure2D strain-a ‘targetless’ strain (Marton et al. Nature Med 1998, 4, 1293-1301). […] The expression of other genes (including GAP1, MEP2, AGP1, BAT2 and DAL5) controlled by Ure2p was essentially unchanged (FIG. 25A,B).

Ure2p [3] = biological target: T1, Ure2p; assay: surface plasmon resonance (BIAcore 3000) binding to immobilized Ure2p; set-up: species or system yeast; details: PBS/Tween-20 with 10% DMF, read-out: equilibrium dissociation constant for binding to Ure2p
Description: as §1

HDAC1 = biological target: T2, HDAC1 (Homo sapiens, UniProt Q13547); assay: HDAC assay, [3H]acetate-incorporated histones with immunoprecipitated FLAG-tagged HDAC1; type: biochemical; details: calculated IC50, data in duplicate, at least two experiments; read-out: IC50 against HDAC1
T2 construct: made in house; host or cells: TAg-Jurkat cells, transient transfection, then immunoprecipitation
T2 sequence (Q13547 whole entry): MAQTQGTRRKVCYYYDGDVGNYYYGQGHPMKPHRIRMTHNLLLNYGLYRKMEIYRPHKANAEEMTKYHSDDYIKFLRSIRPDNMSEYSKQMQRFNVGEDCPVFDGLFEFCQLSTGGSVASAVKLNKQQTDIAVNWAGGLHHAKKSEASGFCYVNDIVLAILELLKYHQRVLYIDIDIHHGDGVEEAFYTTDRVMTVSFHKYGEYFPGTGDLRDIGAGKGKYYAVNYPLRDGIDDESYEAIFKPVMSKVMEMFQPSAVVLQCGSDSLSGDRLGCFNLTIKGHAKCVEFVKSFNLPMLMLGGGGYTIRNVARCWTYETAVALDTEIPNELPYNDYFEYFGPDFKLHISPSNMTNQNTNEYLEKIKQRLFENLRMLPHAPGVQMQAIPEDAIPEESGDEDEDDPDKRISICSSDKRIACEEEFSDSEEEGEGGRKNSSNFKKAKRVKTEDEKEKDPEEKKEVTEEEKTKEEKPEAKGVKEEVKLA
Description: (§2) Cell culture and Transfections. TAg-Jurkat cells were transfected by electroporation with 5 μg of FLAG-epitope-tagged pBJ5 constructs (as described in ref. 5c) for expression of recombinant proteins. Cells were harvested 48 h posttransfection.
HDAC assays. [^3H]Acetate-incorporated histones were isolated from butyrate-treated HeLa cells by hydroxyapatite chromatography (as described in Tong, et al. Nature 1997, 395, 917-921.) Immunoprecipitates were incubated with 1.4 μg (10,000 dpm) histones for 3 h at 37° C. HDAC activity was determined by scintillation counting of the ethyl acetate-soluble [^3H]acetic acid (as described in Taunton, et al., Science 1996, 272, 408-411). Compounds were added in DMSO such that final assay concentrations were 1% DMSO. IC50s were calculated using Prism 3.0 software. Curve fitting was done without constraints using the program's Sigmoidal-Dose Response parameters. All data points were acquired in duplicate and IC50s are calculated from the composite results of at least two separate experiments.

HDAC6 = biological target: T3, HDAC6 (Homo sapiens, UniProt Q9UBN7); assay: HDAC assay, [3H]acetate-incorporated histones with immunoprecipitated FLAG-tagged HDAC6 (HDAC6F); type: biochemical; set-up: made in house; host or cells: TAg Jurkat cells, transient transfection, anti-FLAG M2 immunoprecipitation; details: calculated IC50, data in duplicate, at least two experiments; read-out: IC50 against HDAC6
T3 sequence (Q9UBN7 1-1215): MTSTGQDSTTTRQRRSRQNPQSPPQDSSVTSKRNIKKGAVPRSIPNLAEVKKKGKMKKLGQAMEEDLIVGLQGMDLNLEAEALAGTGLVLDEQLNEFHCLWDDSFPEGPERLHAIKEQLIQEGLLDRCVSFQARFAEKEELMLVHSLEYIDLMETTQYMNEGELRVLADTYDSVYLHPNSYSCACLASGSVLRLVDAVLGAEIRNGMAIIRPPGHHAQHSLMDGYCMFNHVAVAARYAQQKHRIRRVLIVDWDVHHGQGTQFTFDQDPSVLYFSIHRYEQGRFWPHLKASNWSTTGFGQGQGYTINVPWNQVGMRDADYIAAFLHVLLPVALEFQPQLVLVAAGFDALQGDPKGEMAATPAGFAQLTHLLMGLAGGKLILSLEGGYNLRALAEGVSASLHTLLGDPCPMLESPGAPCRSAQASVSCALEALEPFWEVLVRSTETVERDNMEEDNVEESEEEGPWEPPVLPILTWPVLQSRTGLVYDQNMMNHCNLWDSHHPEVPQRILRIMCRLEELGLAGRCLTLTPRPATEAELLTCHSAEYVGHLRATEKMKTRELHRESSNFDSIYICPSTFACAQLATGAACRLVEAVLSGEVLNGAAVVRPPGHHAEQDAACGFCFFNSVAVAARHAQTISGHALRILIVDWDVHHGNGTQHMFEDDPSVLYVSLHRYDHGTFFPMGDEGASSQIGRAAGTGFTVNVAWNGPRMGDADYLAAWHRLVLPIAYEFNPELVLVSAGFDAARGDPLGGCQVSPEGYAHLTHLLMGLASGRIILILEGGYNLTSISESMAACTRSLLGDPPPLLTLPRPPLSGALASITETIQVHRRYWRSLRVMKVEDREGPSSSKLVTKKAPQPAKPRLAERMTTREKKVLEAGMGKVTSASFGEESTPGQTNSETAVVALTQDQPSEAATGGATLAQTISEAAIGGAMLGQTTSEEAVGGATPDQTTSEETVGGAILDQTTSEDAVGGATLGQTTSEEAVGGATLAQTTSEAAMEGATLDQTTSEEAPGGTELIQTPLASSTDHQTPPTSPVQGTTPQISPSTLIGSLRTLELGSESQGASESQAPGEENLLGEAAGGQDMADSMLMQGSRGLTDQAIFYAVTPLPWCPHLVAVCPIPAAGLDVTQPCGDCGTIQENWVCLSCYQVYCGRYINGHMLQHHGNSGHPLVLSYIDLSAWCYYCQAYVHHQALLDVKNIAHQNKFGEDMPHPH
Description: as §2
HDAC assays. […] Compounds were added in DMSO such that final assay concentrations were 1% DMSO. IC50s were calculated using Prism 3.0 software. Curve fitting was done without constraints using the program's Sigmoidal-Dose Response parameters. All data points were acquired in duplicate and IC50s are calculated from the composite results of at least two separate experiments.
Tubulin and MAPs were isolated from bovine brain as described [See http://mitchison.med.harvard.edu/protocols/tubprep.html]. Whole brain and fractions from phosphocellulose chromatography were blotted for HDAC6 and acetylated α-tubulin. Cultured hippocampal neurons from dissociated 1-day old rat brains were transfected with an enhanced green fluorescent protein (EGFP)-actin construct at 4-5 days using the calcium phosphate method [E. N. Star, D. J. Kwiatkowski and V. N. Murthy, Nat. Neurosci. […] K. Miranti and M. E. Greenberg, J. Neurosci. […] Transfected cultures were allowed to grow for at least 48 h before the addition of experimental compounds.
[^3H]Acetate-incorporated histones were isolated from butyrate-treated HeLa cells as described [J. Taunton, C. […] Immunoprecipitates were incubated with acetylated histones and HDAC activity determined by scintillation counting as described [J. Taunton, C. […] TDAC assays were performed with immunoprecipitates using MAP-stabilized microtubules polymerized from MAP-rich tubulin fraction as described [C. […] Reactions were incubated (2 h) at 37° C., then incubated on ice (15 min).

Structure (SMILES) | phenotype in HeLa cells by microscopy (HeLa cells) | activation of PUT1-lacZ reporter (Ure2p [1]) | solubility in yeast medium [2] | gene induction in ure2Δ strain (Ure2p-controlled genes) | gene induction in wild-type cells (Ure2p-controlled genes) | Kd (Ure2p [3]) [µM] | gene induction in gln3Δ strain (Ure2p-controlled genes) | gene induction in nil1Δ strain (Ure2p-controlled genes) | IC50 (HDAC1) [µM] | IC50 (HDAC6) [µM]
O=S(=O)(NCc1ccc(C2O[C@H](CSc3ccc(O)cc3)C[C@H](c3ccc(CO)cc3)O2)cc1)c1ccccc1 (mixture of isomers) [compound 12, (±)-N-[[4-(4R,6S)-4-[4-(hydroxymethyl)phenyl]-6-[[4-hydroxyphenyl)thio]methyl]-1,3-dioxan-2-yl]phenyl]methyl-benzenesulfonamide] | altered actin staining phenotype |  |  |  |  |  |  |  |  | 
NCc1ccc([C@@H]2O[C@H](CSc3nc(-c4ccccc4)c(-c4ccccc4)o3)[C@@H](c3ccccc3)[C@H](c3ccc(CO)cc3)O2)cc1 (relative stereo) [uretupamine A] |  | gave a concentration dependent dose response that at higher concentrations approached the levels of reporter gene activation induced by rapamycin | poor solubility at higher concentrations in yeast medium | little or no effect on either set of genes | upregulated only a subset of genes | 18.1 |  |  |  | 
NCc1ccc([C@@H]2O[C@H](CSc3nc(-c4ccccc4)c(-c4ccccc4)o3)C[C@H](c3ccc(CO)cc3)O2)cc1 (relative stereo) [uretupamine B] |  | more potent than uretupamine A | more soluble derivative | little or no effect on either set of genes | upregulated only a subset of genes | 7.5 | deleting GLN3 had little effect on the actions of uretupamine | deleting NIL1 abrogated its actions |  | 
Cc1ccc(S(=O)(=O)N[C@@H](Cc2ccccc2)C(=O)Nc2cccc(C3O[C@H](CN4CCC(O)(c5ccc(Cl)cc5)CC4)[C@H](C)[C@H](c4ccc(CO)cc4)O3)c2)cc1 (stereo partly shown) [compound 11] | cell detachment |  |  |  |  |  |  |  | > 50 | > 50
